The structures appear in SMILES notation.

As usually defined, the IC50 is the midpoint of a concentration-inhibition curve.

For one experiment, the target named is T1, CDK12 wt/CycK (Homo sapiens, UniProt Q9NYV4).
T1 construct: either as full-length or enzymatically active fragments
T1 sequence (Q9NYV4 whole entry, the tested form may be a part): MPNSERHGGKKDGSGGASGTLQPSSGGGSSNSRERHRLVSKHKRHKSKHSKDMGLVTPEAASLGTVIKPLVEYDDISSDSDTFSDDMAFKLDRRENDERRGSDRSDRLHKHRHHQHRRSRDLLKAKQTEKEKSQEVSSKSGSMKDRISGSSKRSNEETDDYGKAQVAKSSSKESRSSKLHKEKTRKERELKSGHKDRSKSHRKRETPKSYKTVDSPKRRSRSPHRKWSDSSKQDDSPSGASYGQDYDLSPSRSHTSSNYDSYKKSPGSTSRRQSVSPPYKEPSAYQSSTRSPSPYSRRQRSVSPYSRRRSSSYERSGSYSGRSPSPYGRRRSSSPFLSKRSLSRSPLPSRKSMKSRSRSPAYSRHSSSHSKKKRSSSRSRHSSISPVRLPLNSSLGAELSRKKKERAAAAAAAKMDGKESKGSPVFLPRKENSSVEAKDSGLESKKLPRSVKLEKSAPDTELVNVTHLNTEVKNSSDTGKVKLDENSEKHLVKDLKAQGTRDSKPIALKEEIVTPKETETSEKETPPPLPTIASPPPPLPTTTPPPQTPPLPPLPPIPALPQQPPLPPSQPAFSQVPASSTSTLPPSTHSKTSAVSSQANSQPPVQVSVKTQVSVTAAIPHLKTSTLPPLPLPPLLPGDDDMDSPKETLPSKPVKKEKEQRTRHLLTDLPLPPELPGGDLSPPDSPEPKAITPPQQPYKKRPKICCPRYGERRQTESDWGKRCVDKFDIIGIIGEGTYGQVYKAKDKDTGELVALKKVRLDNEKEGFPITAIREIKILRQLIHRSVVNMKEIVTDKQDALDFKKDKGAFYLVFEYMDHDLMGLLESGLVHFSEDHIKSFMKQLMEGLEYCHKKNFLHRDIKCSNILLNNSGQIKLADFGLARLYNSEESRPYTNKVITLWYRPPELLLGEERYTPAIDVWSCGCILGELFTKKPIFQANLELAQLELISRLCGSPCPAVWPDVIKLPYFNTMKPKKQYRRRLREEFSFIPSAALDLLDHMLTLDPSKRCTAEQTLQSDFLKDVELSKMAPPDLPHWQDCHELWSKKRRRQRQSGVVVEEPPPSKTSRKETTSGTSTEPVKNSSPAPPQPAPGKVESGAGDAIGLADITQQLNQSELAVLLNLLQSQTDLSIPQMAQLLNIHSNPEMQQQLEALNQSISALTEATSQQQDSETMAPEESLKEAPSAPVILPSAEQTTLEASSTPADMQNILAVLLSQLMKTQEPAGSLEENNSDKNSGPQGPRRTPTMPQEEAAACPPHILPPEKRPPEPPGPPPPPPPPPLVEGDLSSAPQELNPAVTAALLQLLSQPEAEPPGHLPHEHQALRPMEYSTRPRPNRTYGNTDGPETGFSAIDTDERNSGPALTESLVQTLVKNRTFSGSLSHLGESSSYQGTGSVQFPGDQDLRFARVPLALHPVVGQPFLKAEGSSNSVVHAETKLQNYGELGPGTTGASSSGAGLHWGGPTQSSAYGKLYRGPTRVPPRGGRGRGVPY
T1 sequence (O75909 whole entry partner, the tested form may be a part): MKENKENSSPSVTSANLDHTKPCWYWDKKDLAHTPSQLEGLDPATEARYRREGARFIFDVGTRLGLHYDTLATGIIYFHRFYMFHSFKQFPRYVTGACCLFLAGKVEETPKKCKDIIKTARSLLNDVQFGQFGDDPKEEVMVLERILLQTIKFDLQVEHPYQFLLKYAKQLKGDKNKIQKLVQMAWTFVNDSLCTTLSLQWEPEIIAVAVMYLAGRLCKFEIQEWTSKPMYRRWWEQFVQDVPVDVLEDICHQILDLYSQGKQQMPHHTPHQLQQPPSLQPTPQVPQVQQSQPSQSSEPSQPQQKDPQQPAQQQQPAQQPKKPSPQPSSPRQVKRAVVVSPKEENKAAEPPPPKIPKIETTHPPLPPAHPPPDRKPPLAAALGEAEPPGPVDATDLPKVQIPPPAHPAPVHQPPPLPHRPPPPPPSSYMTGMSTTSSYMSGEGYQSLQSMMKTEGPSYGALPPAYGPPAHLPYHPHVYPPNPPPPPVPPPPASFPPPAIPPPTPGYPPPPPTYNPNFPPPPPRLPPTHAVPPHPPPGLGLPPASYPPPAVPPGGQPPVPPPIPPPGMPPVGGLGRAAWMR
In words: Radiometric protein kinase assay (33PanQinase), assay condition 2, thiol containing conditions. The following applies: thiol containing conditions (1.2 mM DTT), ATP 0.3 μM. It is filed as biochemical. As to the method:
Example 1—Assay condition 2 (thiol containing conditions)
Objective: The IC50 profile of test compounds was determined using protein kinases. IC50 values were measured by testing 10 concentrations (1×10^−04M, 3×10^−05M, 1×10^−05M, 3×10^−06M, 1×10^−06M, 3×10^−07M, 1×10^−07M, 3×10^−08M, 1×10^−08M, and 3×10^−09M) of each compound in singlicate.
Test compounds: The compounds were provided as pre-weighed powders in vials. The compounds were dissolved to 1×10^−02M by adding DMSO. 100 μl of each of the resulting stock solutions were transferred into column 2 of four 96 well “master plates”
Prior to testing, the 1×10^−02M stock solutions in column 2 of the master plates were subjected to a serial, semi-logarithmic dilution using 100% DMSO as a solvent. […] Column 1 and 7 were filled with 100% DMSO as controls. Subsequently, 2×10 μl from each well of the serial diluted copy plates were aliquoted with a 96 channel pipettor into two identical sets of “compound dilution plates”.
In the process, 90 μl H2O were added to each well of a set of compound dilution plates. To minimize potential precipitation, the H2O was added to each plate only a few minutes before the transfer of the compound solutions into the assay plates. Each plate was shaken thoroughly, resulting in a “compound dilution plate/ 10% DMSO”.
For the assays, 5 μl solution from each well of the compound dilution plates/10% DMSO were transferred into the assay plates. The final volume of the assay was 50 μl. All compounds were tested at 10 final assay concentrations in the range from 1×10^−04M to 3×10^−09M, in singlicate. The final DMSO concentration in the reaction cocktails was 1% in all cases.
Recombinant protein kinases: All protein kinases were expressed in Sf9 insect cells or in E.coli as recombinant GST-fusion proteins or His-tagged proteins, either as full-length or enzymatically active fragments. All kinases were produced from human cDNAs and purified by either GSH-affinity chromatography or immobilized metal. Affinity tags were removed from a number of kinases during purification. The purity of the protein kinases was examined by SDS-PAGE/Coomassie staining, the identity was checked by mass spectroscopy.
Protein kinase assay: A radiometric protein kinase assay (^33PanQinase® Activity Assay) was used for measuring the kinase activity. All kinase assays were performed in 96-well FlashPlates™ from PerkinElmer (Boston, MA, USA) in a 50 μl reaction volume. The reaction cocktail was pipetted in four steps in the following order: • 20 μl of assay buffer (standard buffer) • 5μl of ATP solution (in H2O) • 5μl of test compound (in 10% DMSO) • 20 μl enzyme/substrate mix
The assay for all protein kinases contained 70 mM HEPES-NaOH pH 7.5, 3 mM MgCl2, 3 mM MnCl2, 3 μM Na-orthovanadate, 1.2 mM DTT, 50 μg/ml PEG20000, ATP (variable concentrations, corresponding to the apparent ATP-K. of the respective kinase), [γ-^33P]-ATP (approx. 9×10^05cpm per well), protein kinase, and substrate.
The following amounts of enzyme and substrate were used per well:
The reaction cocktails were incubated at 30° C. for 60 minutes. The reaction was stopped with 50 μl of 2% (v/v) H3PO4, plates were aspirated and washed two times with 200 μl 0.9% (w/v) NaCl. Incorporation of ^33Pi was determined with a microplate scintillation counter (Microbeta, Wallac). All assays were performed with a BeckmanCoulter/SAGIANTM Core System.
Evaluation of raw data: The median value of the counts in column 1 (n=8) of each assay plate was defined as “low control”. This value reflects unspecific binding of radioactivity to the plate in the absence of a protein kinase but in the presence of the substrate. The median value of the counts in column 7 of each assay plate (n=8) was taken as the “high control”, i.e. full activity in the absence of any inhibitor. The difference between high and low control was taken as 100% activity. […]
In the case of `Cc1nc(N2CC[C@@H](Nc3ncc(Cl)c(-c4cnn5ccccc45)n3)C2)c2ccc(NC(=O)/C=C/CN(C)C)cc2n1` [Example 35, (R,E)—N-(4-(3-((5-chloro-4-(pyrazolo[1,5-a]pyridin-3-yl)pyrimidin-2-yl)amino)pyrrolidin-1-yl)-2-methylquinazolin-7-yl)-4-(dimethylamino)but-2-enamide], the IC50 is ≤ 0.1 µM. As for `C=CC(=O)N(C)c1ccc2c(N3CC[C@@H](Nc4ncc(C#N)cn4)C3)nccc2c1` [Example 36, (R)—N-(1-(3-((5-cyanopyrimidin-2-yl)amino)pyrrolidin-1-yl)isoquinolin-6-yl)-N-methylacrylamide], the IC50 was ≤ 0.1 µM. On the same count and under the same terms, to `C=CC(=O)Nc1ccc2c(N3CC[C@@H](Nc4ncc(C#N)cn4)C3)nc(N3CCOCC3)cc2c1` [Example 37, (R)—N-(1-(3-((5-cyanopyrimidin-2-yl)amino)pyrrolidin-1-yl)-3-morpholinoisoquinolin-6-yl)acrylamide] belongs ≤ 0.1 µM; to `C=CC(=O)N(C)c1ccc2c(N3CC[C@@H](Nc4ncc(C#N)cn4)C3)nc(C)nc2c1` [Example 39, (R)—N-(4-(3-((5-cyanopyrimidin-2-yl)amino)pyrrolidin-1-yl)-2-methylquinazolin-7-yl)-N-methylacrylamide], ≤ 0.1 µM; to `C=CC(=O)N(C)c1ccc2c(N3CC[C@@H](Nc4ncc(Br)cn4)C3)nc(C)nc2c1` [Example 40, (R)—N-(4-(3-((5-bromopyrimidin-2-yl)amino)pyrrolidin-1-yl)-2-methylquinazolin-7-yl)-N-methylacrylamide], ≤ 0.1 µM.

`C=CC(=O)N(C)c1ccc2c(N3CC[C@@H](Nc4ncc(C#N)cn4)C3)nc(N3CCN(C)CC3)nc2c1` [Example 41, (R)—N-(4-(3-((5-cyanopyrimidin-2-yl)amino)pyrrolidin-1-yl)-2-(4-methylpiperazin-1-yl)quinazolin-7-yl)-N-methylacrylamide]: the IC50 is ≤ 0.1 µM.

For `C=CC(=O)N(C)c1ccc2c(N3CC[C@@H](Nc4ncc(C#N)cn4)C3)nc(C3=CCN(C)CC3)cc2c1` [Example 42, (R)—N-(1-(3-((5-cyanopyrimidin-2-yl)amino)pyrrolidin-1-yl)-3-(1-methyl-1,2,3,6-tetrahydropyridin-4-yl)isoquinolin-6-yl)-N-methylacrylamide], the IC50 is ≤ 0.1 µM.

The next experiment relates to panel of 1,151 cancer cell lines.
Test: not given
Particulars: in 52% of 1,151 cancer cell lines; cited from earlier work.
For `CN(C)C/C=C/C(=O)Nc1ccc(C(=O)Nc2cccc(Nc3ncc(Cl)c(-c4c[nH]c5ccccc45)n3)c2)cc1` [THZ1], the IC50 is < 0.2 µM.
